# Data published in publication PMC11681159, “Bee pollen peptides as potent tyrosinase inhibitors with anti-melanogenesis effects in murine b16f10 melanoma cells and zebrafish embryos” (Scientific Reports, 2024).
# “Also recorded” adds a separate entry of the source. Ends that are not written are not given here.
# Tests used:
# Format in all cases: cell-based, mouse
# B16F10 melanoma cells = assay: Cell viability assay (MTT); settings: 72 h
# Experimental: To perform the assay to establish cell viability, a 96-well plate was used for the seeding of the B16F10 cells at 5 × 10^3 cells/well. The cells were then left overnight to allow adherence. The VY-9 peptide at varying concentrations was then used to treat the cells for 72 h. MTT was produced as a 2.5 mg/mL solution in PBS whereupon 10 µL of this MTT solution was introduced to each well before incubating the plate for 4 h at 37 °C inside a humid 5% CO2 incubator. Following this step, the medium was removed the wells, and 200 µL of DMSO was added in its place. Finally, a microplate reader was employed to measure the absorbance for each of the wells at 540 nm, while arbutin (0.2 mM) served as the positive control. Each test was carried out in triplicate, with the findings presented in the form of mean ± standard deviation.
# Trp-2 [1] = assay: qRT-PCR, Trp-2 mRNA; settings: B16F10, 48 h
# Experimental: A 6-well plate was used to seed B16F10 cells at 1 × 10^5 cells per well prior to overnight incubation in a 5% CO2 humid atmosphere at 37°C. […] Harvesting was conducted via removal of the supernatant, and the cells were rinsed twice in PBS (phosphate-buffered saline). The PureLink™RNA Mini Kit (Invitrogen™, USA) was then used to extract total RNA in line with the guidance of the manufacturer. RNA concentration was assessed at 260 nm with a NanoDrop 2000 UV-Vis spectrophotometer (Thermo Fisher Scientific, Inc.). Oligo-dT primers and a Precision nanoScript II Reverse Transcription Kit (PrimerDesign, Camberley, UK) were used to perform the reverse transcription of 1 µg of total RNA to cDNA in line with the guidance of the manufacturer. MyGo Pro®Real time PCR apparatus (IT-IS International Ltd., Stokesley, UK) was then used to perform the qRT-PCR assays in which 20 µL of PCR reaction contained 1 µL of cDNA, 7 µL of ultrapure water, 1 µL of each primer […], and 10 µL of 2×qPCRBIO SyGreen Mix (PCR Biosystems Ltd, London, UK). This research made use of the following PCR primers: Gapdh forward 5’-[…]-3’, Gapdh reverse 5’-[…]-3’, Tyr forward 5’-[…]-3’, Tyr reverse 5’-[…]-3’, Trp-1 forward 5’-[…]-3’, Trp-1 reverse 5’-[…]-3’, Trp-2 forward 5’-[…]-3’, Trp-2 reverse 5’-[…]-3’, Mitf forward 5’-[…] − 3’, Mitf reverse 5’-[…]-3’. The initial stage of the process of qRT-PCR amplification was the activation step of thermal treatment where a temperature of 95 °C was used for 2 min, with 45 subsequent cycles comprising 10 s at 95 °C, 20 s at 60 °C, and 30 s at 72 °C, before embarking upon the final melting curve from 60 to 97 °C with 1 min for each step. The relative gene expression level could then be calculated via the cycle threshold (Ct) value, while the role of endogenous control for data normalization was occupied by Gapdh (the housekeeping gene). To calculate relative gene expression, the formula given below can be employed:2 [drawing 2]
# where the heightened threshold cycle for the target gene is given as ΔΔCt.
# Mitf = assay: Western blot, MITF protein
# Experimental: (§1) Following this process, the cells were lysed using NP40 Cell Lysis Buffer with protease inhibitor cocktail supplementation. Next, 12% sodium dodecyl sulfate poly-acrylamide (SDS-PAGE) gel electrophoresis was used to extract equal quantities of protein from each sample, with subsequent transfer to PVD (polyvinylidene fluoride) membranes (Millipore, Bedford, MA, USA). The membrane was blocked overnight with 3% skimmed milk (w/v) in TBST with 0.5% Tween 20 at 4 °C and then washed thrice in TBST. The rabbit polyclonal anti-TYR antibody (dilution 1:1000), anti-TRP-1 antibody (dilution 1:1000), anti-TRP-2 antibody and anti-MITF antibody (dilution 1:1000) obtained from Abcam (USA), were used respectively to detect the TYR, TRP-1, TRP-2, and MITF bands. After thrice washing again in TBST, secondary antibodies (dilution 1:5000) were added to the membranes for 1 h of incubation at room temperature before another triplicate washing in TBST. Enhanced chemiluminescence horseradish peroxidase (HRP) substrates (GeneDirex, Taiwan) were then used in line with the guidance of the manufacturer to detect bound antibodies, while β-actin antibody was employed to evaluate the loading control. Gel band detection was performed using ImageJ software (version 1.54), available at https://imagej.net/ij/. The software facilitated the identification and quantification of protein expression levels.
# Tyr = assay: Western blot, TYR protein; settings: B16F10, 48 h
# Experimental: as §1, with “Western blot analysis was performed to measure TYR (TYR, TRP-1, TRP-2, and MITF) in B16F10 cells in line with the approach discussed by Yoon et al.[65]. whereby the B16F10 cells underwent treatment for 48 h using various peptide amounts ([…]) and also with arbutin (0.2 mM). Following” for “Following”, “Enhanced chemiluminescence horseradish peroxidase (HRP) substrates (GeneDirex, Taiwan) were then used in line with the guidance of the manufacturer to detect bound antibodies, while β-actin antibody was employed to evaluate the loading control. Gel band detection was performed using ImageJ software (version 1.54), available at https://imagej.net/ij/.” left out
# Trp-2 [2] = assay: Western blot, TRP-2 protein; settings: B16F10, 48 h
# Experimental: as §1
sequence,measurement,setting,value
"VDGYPAAGY [VY-9, Val-Asp-Gly-Tyr-Pro-Ala- Ala-Gly-Tyr]",cytotoxicity in B16F10 cells,B16F10 melanoma cells; 0 to 1.6 µM (abstract: 0.2–1.6 µM),negligible cytotoxicity; also recorded: no clear signs of cytotoxicity
same,B16F10 cell viability,"B16F10 melanoma cells; 0 to 1.6 µM, triplicate",> 50%
same,TRP-2 mRNA level vs control,Trp-2 [1]; 0.2 µM,decreased slightly compared to the control
same,Trp-2 mRNA expression vs control,Trp-2 [1]; 1.6 µM,significantly reduced the expression levels of all measured genes
same,concentration from which Trp-2 mRNA expression decreased,Trp-2 [1]; vs control,0.2 µM
same,Trp-2 mRNA expression vs arbutin,Trp-2 [1]; VY-9 1.6 µM vs arbutin 0.2 mM,significantly decreased compared to arbutin
same,MITF protein expression vs control,"Mitf; 1.6 µM, B16F10, 48 h",the expression of all proteins decreased compared to the control
same,concentration from which MITF protein expression decreased,"Mitf; B16F10, 48 h, western blot",0.4 µM
same,MITF protein expression vs arbutin,"Mitf; VY-9 1.6 µM vs arbutin 0.2 mM, 48 h",only MITF showed a lower expression level
same,TYR protein expression vs control,Tyr; 1.6 µM,the expression of all proteins decreased compared to the control
same,concentration from which TYR protein expression decreased,Tyr; western blot,0.4 µM
same,TRP-2 protein level vs control,Trp-2 [2]; 0.2 µM,decreased slightly compared to the control
same,TRP-2 protein expression vs control,Trp-2 [2]; 1.6 µM,the expression of all proteins decreased compared to the control
same,concentration from which TRP-2 protein expression gradually decreased,Trp-2 [2]; western blot,0.2 µM
